The nature of this test: ABTS free radicals scavenging assay (antioxidant assay kit, Cayman). Format: biochemical. The conditions noted are these: 0.0625-1 mM tested; 5 minutes room temperature; absorbance 750 nm. As to the method:
An antioxidant assay kit (Cayman) was used for this assay according to the instructions. Each of samples including 10 μl of 6.25%˜100% conditioned medium or 0.0625˜1 mM L-ascorbic acid (L-AA) was mixed with 10 μl of metmyoglobin, 150 μl chromogen, and 40 μl hydrogen peroxide for reaction at room temperature for 5 minutes. Because stem cell conditioned medium (CM) is a composite component, a percentage (%) instead of a concentration (mM) is presented as the unit of CM herein.
Referring to FIG. 2A, it is a representative diagram showing the effect of WJMSC-CM on scavenging ABTS free radicals. Various concentration of L-ascorbic acid (L-AA) or stem cell conditioned medium (CM) was mixed with an appropriate amount of ABTS and oxidants for reaction. ABTS has an absorption peak at 750 nm. This assay is based on the ability of antioxidants to reduce ABTS into its colourless form and the extent of decolourisation corresponding to the absorbance reduction of ABTS.

For orientation: IC50 means the concentration needed to halve the response being measured. Low values mean greater potency, high ones weaker potency. Take `O=C1O[C@H]([C@@H](O)CO)C(O)=C1O` [L-ascorbic acid]: 806 µM corresponded to half-maximal inhibition (IC50).

(Values after US9284528B2, “Use of stem cell conditioned medium to inhibit oxidation for anti-aging skin” (GROWGENE BIOTECH INC., priority 2014, dated 2016).)
